Assay results reported in PubChem BioAssay AID330 (DTP/NCI, 2004).
Several values for one entry are separate records, joined by “and”; a condition that tells them apart may be missing. Identical values can stand only once. Inconclusive results and toxic doses are left out.

Test system: P388 leukemia ip, CD2F1 mice, survival T/C
Experiment: NCI In Vivo Anticancer Drug Screen. Data for tumor model P388 Leukemia (intraperitoneal) in CD2F1 (CDF1) mice
Conditions: endpoint: median survival time, higher = longer survival
How it was run: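 Mice carrying the transplanted tumor received test compound or vehicle. Survival was recorded in each group, and the value is the treated-group measurement divided by that of the vehicle-treated control group.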

[1] = dose: 50.0 mg/kg/injection, schedule: Q01DX009 (ip), vehicle: saline
[2] = dose: 100.0 mg/kg/injection, schedule: Q01DX009 (ip), vehicle: saline
[3] = dose: 200.0 mg/kg/injection, schedule: Q01DX009 (ip), vehicle: saline
[4] = dose: 25.0 mg/kg/injection, schedule: Q01DX009 (ip), vehicle: saline with Tween-80
[5] = dose: 50.0 mg/kg/injection, schedule: Q01DX009 (ip), vehicle: saline with Tween-80
[6] = dose: 100.0 mg/kg/injection, schedule: Q01DX009 (ip), vehicle: saline with Tween-80
[7] = dose: 50.0 mg/kg/injection, schedule: Q01DX009 (ip), vehicle: Klucel (hydroxypropylcellulose) (HPC)
[8] = dose: 100.0 mg/kg/injection, schedule: Q01DX009 (ip), vehicle: Klucel (hydroxypropylcellulose) (HPC)
[9] = dose: 200.0 mg/kg/injection, schedule: Q01DX009 (ip), vehicle: Klucel (hydroxypropylcellulose) (HPC)
[10] = dose: 100.0 mg/kg/injection, schedule: Q04DX002 (ip), vehicle: saline with Tween-80
[11] = dose: 100.0 mg/kg/injection, schedule: Q04DX002 (ip), vehicle: Klucel (hydroxypropylcellulose) (HPC)
[12] = dose: 200.0 mg/kg/injection, schedule: Q04DX002 (ip), vehicle: Klucel (hydroxypropylcellulose) (HPC)

Compound: CNC(=O)OCc1ncn(-c2ccccc2)c1COC(=O)NC
- T/C (dose: 12.5 mg/kg/injection, schedule: Q01DX005 (ip), vehicle: distilled water + Tween-80): 99 % of control
- T/C (dose: 25.0 mg/kg/injection, schedule: Q01DX005 (ip), vehicle: distilled water + Tween-80): 95 % of control
- T/C (dose: 50.0 mg/kg/injection, schedule: Q01DX005 (ip), vehicle: distilled water + Tween-80): 101 % of control
- T/C (dose: 100.0 mg/kg/injection, schedule: Q01DX005 (ip), vehicle: distilled water + Tween-80): 101 % of control
- T/C (dose: 200.0 mg/kg/injection, schedule: Q01DX005 (ip), vehicle: distilled water + Tween-80): 99 % of control

Compound: Cn1c(C(C)(O)c2cc3c(Cl)nccc3n2C)cc2c(Cl)nccc21
- T/C (dose: 50.0 mg/kg/injection, schedule: Q01DX005 (ip), vehicle: Klucel (hydroxypropylcellulose) (HPC)): 103 % of control
- T/C (dose: 100.0 mg/kg/injection, schedule: Q01DX005 (ip), vehicle: Klucel (hydroxypropylcellulose) (HPC)): 105 % of control
- T/C (dose: 200.0 mg/kg/injection, schedule: Q01DX005 (ip), vehicle: Klucel (hydroxypropylcellulose) (HPC)): 106 % of control

Compound: COc1ccc2cc(-c3ccccc3)[s+]cc2c1
- T/C (dose: 3.12 mg/kg/injection, schedule: Q01DX009 (ip), vehicle: DMSO): 91 % of control
- T/C (dose: 6.25 mg/kg/injection, schedule: Q01DX009 (ip), vehicle: DMSO): 86 % of control
- T/C (dose: 12.5 mg/kg/injection, schedule: Q01DX009 (ip), vehicle: DMSO): 89 % of control
- T/C (dose: 50.0 mg/kg/injection, schedule: Q01DX009 (ip), vehicle: DMSO): 99 % of control

Compound: O=C1C(c2ccccc2)SC(=S)N1c1ccccc1 (stereo not given)
- T/C [1]: 105 % of control
- T/C [2]: 92 % of control
- T/C [3]: 89 % of control

Compound: CCCCOP(=O)(CCCC)OCCCC.CCCCOP(=O)(CCCC)OCCCC.CCCCOP(=O)(CCCC)OCCCC.CCCCOP(=O)(CCCC)OCCCC.O.O.[Co+2].[O-][Cl+3]([O-])([O-])O
- T/C [4]: 87 % of control
- T/C [5]: 100 % of control and 104 % of control
- T/C [6]: 116 % of control

Compound: CC(C)CC(NC(CCC(=O)O)C(=O)O)C(=O)O (stereo not given)
- T/C (dose: 2.25 mg/kg/injection, schedule: Q01DX005 (ip), vehicle: saline): 106 % of control
- T/C (dose: 4.5 mg/kg/injection, schedule: Q01DX005 (ip), vehicle: saline): 106 % of control
- T/C (dose: 9.0 mg/kg/injection, schedule: Q01DX005 (ip), vehicle: saline): 96 % of control
- T/C (dose: 18.0 mg/kg/injection, schedule: Q01DX005 (ip), vehicle: saline): 104 % of control

Compound: CC(=O)OCc1ncccc1OC(C)=O
- T/C [4]: 104 % of control
- T/C [5]: 111 % of control
- T/C [6]: 104 % of control
- T/C (dose: 200.0 mg/kg/injection, schedule: Q01DX009 (ip), vehicle: saline with Tween-80): 109 % of control

Compound: CC(N)(Cc1ccc(O)c(O)c1)C(=O)O (stereo not given)
- T/C [1]: 99 % of control and 107 % of control and 110 % of control
- T/C [2]: 99 % of control and 102 % of control and 112 % of control
- T/C [3]: 108 % of control and 96 % of control
- T/C (dose: 400.0 mg/kg/injection, schedule: Q01DX009 (ip), vehicle: saline): 105 % of control and 109 % of control and 115 % of control
- T/C (dose: 600.0 mg/kg/injection, schedule: Q01DX009 (ip), vehicle: saline): 114 % of control and 121 % of control and 94 % of control

Compound: Cc1ccc(S(=O)(=O)NCCCc2ccccc2)cc1
- T/C [7]: 118 % of control
- T/C [8]: 123 % of control
- T/C [9]: 115 % of control

Compound: NC(=O)c1ccc(NO)cc1
- T/C [1]: 106 % of control
- T/C [2]: 98 % of control
- T/C [3]: 94 % of control

Compound: C=CCCCC/C=C/C=C/C#CC#C/C=C/COC(C)=O
- T/C (dose: 12.5 mg/kg/injection, schedule: Q01DX009 (ip), vehicle: Klucel (hydroxypropylcellulose) (HPC)): 100 % of control
- T/C (dose: 25.0 mg/kg/injection, schedule: Q01DX009 (ip), vehicle: Klucel (hydroxypropylcellulose) (HPC)): 106 % of control
- T/C [7]: 106 % of control
- T/C [8]: 106 % of control

Compound: CN1C(=O)N(C)C2=NC(=O)N(C)C2(C(Cl)(Cl)Cl)C1=O (stereo not given)
- T/C (dose: 7.5 mg/kg/injection, schedule: Q01DX005 (ip), vehicle: saline with Tween-80): 103 % of control
- T/C (dose: 15.0 mg/kg/injection, schedule: Q01DX005 (ip), vehicle: saline with Tween-80): 102 % of control
- T/C (dose: 30.0 mg/kg/injection, schedule: Q01DX005 (ip), vehicle: saline with Tween-80): 112 % of control
- T/C (dose: 60.0 mg/kg/injection, schedule: Q01DX005 (ip), vehicle: saline with Tween-80): 112 % of control

Compound: CCC(c1ccc(OC)cc1)C(NCC(=O)N/N=C/c1c[nH]c2ccccc12)c1ccc(OC)cc1 (stereo not given)
- T/C (dose: 100.0 mg/kg/injection, schedule: Q01DX001 (ip), vehicle: saline with Tween-80): 94 % of control
- T/C (dose: 200.0 mg/kg/injection, schedule: Q01DX001 (ip), vehicle: saline with Tween-80): 87 % of control

Compound: CCN(CC)C1=NS(=O)(=O)c2ccccc2C(SC)=C1C
- T/C [10]: 106 % of control
- T/C (dose: 200.0 mg/kg/injection, schedule: Q04DX002 (ip), vehicle: saline with Tween-80): 100 % of control
- T/C (dose: 400.0 mg/kg/injection, schedule: Q04DX002 (ip), vehicle: saline with Tween-80): 100 % of control

Compound: CCN(CC)CCOc1ccc(Cl)c(C)c1
- T/C (dose: 50.0 mg/kg/injection, schedule: Q01DX005 (ip), vehicle: saline with Tween-80): 101 % of control
- T/C (dose: 100.0 mg/kg/injection, schedule: Q01DX005 (ip), vehicle: saline with Tween-80): 103 % of control

Compound: C/C=C(\C)C(=O)Nc1c(C)cccc1Cl
- T/C [11]: 106 % of control
- T/C [12]: 104 % of control

Compound: C=CC(=NC(C)(C)C)Nc1ccc(OC)cc1
- T/C [5]: 112 % of control
- T/C [6]: 112 % of control

Compound: CC([NH-])C[NH-].[I][Pt+2][I] (stereo not given)
- T/C [10]: 154 % of control and 151 % of control

Compound: C1=NC(C2CC2)c2ccc3c([nH]c4ccccc43)c2N1 (stereo not given)
- T/C [11]: 101 % of control
- T/C [12]: 90 % of control

Compound: O=C(O)c1cc2c([N+](=O)[O-])cccc2[se]1
- T/C (dose: 12.5 mg/kg/injection, schedule: Q01DX009 (ip), vehicle: saline): 100 % of control
- T/C (dose: 25.0 mg/kg/injection, schedule: Q01DX009 (ip), vehicle: saline): 100 % of control
- T/C [1]: 94 % of control and 97 % of control

Compound: CN(C)Cc1cn(C)c2ccccc12
- T/C (dose: 12.5 mg/kg/injection, schedule: Q01DX005 (ip), vehicle: saline): 99 % of control
- T/C (dose: 25.0 mg/kg/injection, schedule: Q01DX005 (ip), vehicle: saline): 93 % of control
- T/C (dose: 50.0 mg/kg/injection, schedule: Q01DX005 (ip), vehicle: saline): 98 % of control and 95 % of control

Compound: COc1ccc(C(=O)CC2(O)C(=O)Nc3ccccc32)cc1 (stereo not given)
- T/C [7]: 100 % of control
- T/C [8]: 102 % of control
- T/C [9]: 100 % of control

Compound: COc1ccc(CCN)c(OC)c1OC
- T/C [1]: 105 % of control and 107 % of control
- T/C [2]: 104 % of control and 110 % of control

Compound: O=C(C=C(C(F)(F)F)C(F)(F)F)c1ccc([N+](=O)[O-])cc1
- T/C (dose: 3.13 mg/kg/injection, schedule: Q04DX003 (ip), vehicle: other): 100 % of control
- T/C (dose: 6.25 mg/kg/injection, schedule: Q04DX003 (ip), vehicle: other): 109 % of control
- T/C (dose: 12.5 mg/kg/injection, schedule: Q04DX003 (ip), vehicle: other): 118 % of control

Compound: O=NN(CCCl)C(=O)N[C@H]1CCCC[C@@H]1Cl
- T/C [4]: 250 % of control
- T/C (dose: 33.0 mg/kg/injection, schedule: Q04DX003 (ip), vehicle: saline with Tween-80): 200 % of control
- T/C [5]: 109 % of control
- T/C (dose: 50.0 mg/kg/injection, schedule: Q04DX003 (ip), vehicle: saline with Tween-80): 300 % of control
- T/C (dose: 100.0 mg/kg/injection, schedule: Q04DX003 (ip), vehicle: saline with Tween-80): 90 % of control

Compound: CC1=C(C#N)C(C)(C)C(C#N)=C(C)N1
- T/C (dose: 12.5 mg/kg/injection, schedule: Q01DX009 (ip), vehicle: other): 108 % of control
- T/C (dose: 25.0 mg/kg/injection, schedule: Q01DX009 (ip), vehicle: other): 106 % of control
- T/C (dose: 50.0 mg/kg/injection, schedule: Q01DX009 (ip), vehicle: other): 92 % of control

Compound: Nc1csc(Nc2c3ccccc3nc3ccccc23)n1
- T/C (dose: 12.5 mg/kg/injection, schedule: Q04DX002 (ip), vehicle: distilled water + Tween-80): 98 % of control
- T/C (dose: 25.0 mg/kg/injection, schedule: Q04DX002 (ip), vehicle: distilled water + Tween-80): 97 % of control

Compound: CC12CC3(C)CC(C)(C1)CC(C(Cl)C(=O)NC1CCCCC1)(C2)C3 (stereo not given)
- T/C [7]: 110 % of control
- T/C [8]: 107 % of control
- T/C [9]: 97 % of control

Compound: CC(C)(C)N1COCO[C@H]2CCC[C@@H]21
- T/C (dose: 25.0 mg/kg/injection, schedule: Q04DX002 (ip), vehicle: Klucel (hydroxypropylcellulose) (HPC)): 100 % of control
- T/C (dose: 50.0 mg/kg/injection, schedule: Q04DX002 (ip), vehicle: Klucel (hydroxypropylcellulose) (HPC)): 102 % of control
- T/C [11]: 114 % of control
- T/C [12]: 100 % of control and 123 % of control
